Measured values reported in patent US20090184062A1, “METHOD FOR INHIBITING BIOFILM GROWTH” (PPG INDUSTRIES OHIO, INC., priority 2008, published 2009).
Marks after values point to notes of the source that are not given here.

Tests used:
[1] = system: Sphaerotilus natans (ATCC 15291) biofilm; assay: Biocidal effect on an existing Sphaerotilus natans biofilm in Erlenmeyer flasks (agar plate count of surviving organisms); type: cell-based
Description: In the following examples, the sheathed filamentous bacterium Sphaerotilus natans (ATCC 15291) was used. A freeze-dried sample of the bacterium was obtained from the American Type Culture Collection (ATCC, Rockville, Md.). ATCC growth medium (CYGA #1103 broth) was prepared by dissolving (per liter of tap water): 5 grams casitone (pancreatic digest of casein, Difco #225930), which is available from Voight Global Distributions, Inc., Lawrence, Kans.; 10 grams of glycerol; and 1 gram of yeast extract. The growth medium was sterilized at 120° C. for 15 minutes. The sample of Sphaerotilus natans obtained from ATCC was cultured in the CYGA growth medium and transferred to agar plates prepared from CYGA medium plus 1.5 weight percent agar. The agar plates were incubated at 30° C. The bacterium from these agar plates was transferred (subcultured) every few weeks to fresh agar plates to maintain the viability of the microorganism.
3-chloro-4,4-dimethyl-2-oxazolidinone (DMO-Cl) reagent was prepared by manually mixing a selected amount of 4,4-dimethyl-2-oxazolidinone (DMO) and a hypochlorite-containing stock solution in an Erlenmeyer flask, and allowing the mixture to stand for 8-10 hours at room temperature (about 23° C.) prior to use in the experiments. The hypochlorite-containing stock solution was prepared by dissolving calcium hypochlorite in deionized water in an Erlenmeyer flask. The amount of calcium hypochlorite used provided a hypochlorite concentration of approximately 1000 mg/L. The DMO used was Sustains Summer Shield (approximately 17.5 wt. % DMO, density of 1.14 g/mL), which is available from PPG Industries, Inc. The mixture was diluted to the desired concentration with sterile tap water before use in the experiments. Sterile tap water used in the experiments was prepared by autoclaving tap water at 120° C. for 15 minutes. The sterile tap water contained no measurable level of chlorine.
A loop full of Sphaerotilus natans (S. Natans) from an Agar plate containing the S. Natans culture was inoculated in 150 mL of CYGA #1103 growth medium and agitated in a temperature-controlled shaker at 30° C. and 150 rpm for 20 hours to prepare a pre-culture. Five (5) mL of this pre-culture were inoculated into each of a series of 250 mL Erlenmeyer flasks containing 150 mL of CYGA growth medium for batch cultivation of the S. Natans. The bacterium were cultivated at 30° C. for 96 hours on a rotary shaker at 150 rpm. At these conditions, a biofilm layer approximately 2-3 mm high formed on the inside wall of each of the Erlenmeyer flasks near the liquid surface. Approximately 50 to 75 percent of the liquid growth medium in the flasks was carefully decanted, leaving the biofilm layer intact. The decanted liquid growth medium was discarded.
For the control, sterile tap water was added to an Erlenmeyer flask. In other tests (as shown in Table I), various levels of hypochlorous acid (HOCl) or 3-chloro-4,4-dimethyl-2-oxazolidinone (DMO-Cl) were added to an Erlenmeyer flask. The amount of tap water used was approximately equal to the volume of decanted growth medium. The flasks were placed on a temperature controlled rotary shaker (30° C., 150 rpm) for 60 minutes. Total chlorine and free chlorine levels in the liquid medium in the flasks were measured at the beginning and at the end of the 60 minute contact time. At the end of the 60 minute contact time, the biofilm ring was carefully scraped from the flask surface and added to the liquid medium in the flask to ensure that the liquid medium contained the entire biofilm population for enumeration. The liquid in the flask was vigorously agitated to uniformly disperse the organisms. The liquid in the flask was sampled and serially diluted in sterile tap water for agar plating to enumerate the surviving organisms. Agar plating was performed in duplicate and the number of microorganism colonies counted after 48 hours of growth at approximately 30° C. […]

[2] = Total and free chlorine levels in the liquid medium at the end of the contact time (Hach DPD test kit); type: physicochemical; conditions: for End FC (free chlorine after one hour) / End TC (total chlorine after one hour): Table I, after 60 min with biofilm, expressed as mg/L Cl2; for End FC (free chlorine at end) / End TC (total chlorine at end): Table II, 30 min contact, as Cl2
Description: For the control, sterile tap water was added to an Erlenmeyer flask. In other tests (as shown in Table I), various levels of hypochlorous acid (HOCl) or 3-chloro-4,4-dimethyl-2-oxazolidinone (DMO-Cl) were added to an Erlenmeyer flask. The amount of tap water used was approximately equal to the volume of decanted growth medium. The flasks were placed on a temperature controlled rotary shaker (30° C., 150 rpm) for 60 minutes. Total chlorine and free chlorine levels in the liquid medium in the flasks were measured at the beginning and at the end of the 60 minute contact time. At the end of the 60 minute contact time, the biofilm ring was carefully scraped from the flask surface and added to the liquid medium in the flask to ensure that the liquid medium contained the entire biofilm population for enumeration. The liquid in the flask was vigorously agitated to uniformly disperse the organisms. The liquid in the flask was sampled and serially diluted in sterile tap water for agar plating to enumerate the surviving organisms. Agar plating was performed in duplicate and the number of microorganism colonies counted after 48 hours of growth at approximately 30° C.
The procedure of Example 1 was followed except that the concentration of DMO-Cl was varied from 15 μL/L to 60 μL/L, and the contact time was 30 minutes to allow a better opportunity for survival and detection of the S. Natans microorganism. Symbols and footnotes used in Table II that are the same as those found in Table I have the same meaning.

[3] = initial total chlorine 5.4 mg/L
[4] = initial total chlorine about 1 mg/L (HOCl 1.1; DMO-Cl 1.04)
[5] = DMO-Cl prepared with 15 μL/L Sustain Summer Shield, initial total chlorine 1.2 mg/L
[6] = DMO-Cl prepared with 30 μL/L Sustain Summer Shield, initial total chlorine 1.18 mg/L
[7] = DMO-Cl prepared with 60 μL/L Sustain Summer Shield, initial total chlorine 1.19 mg/L
[8] = Table I, 60 min contact, initial total chlorine 5.4 mg/L (DMO-Cl prepared with 50 μL/L Sustain Summer Shield), average of duplicates
[9] = Table I, 60 min contact, initial total chlorine about 1 mg/L (HOCl 1.1; DMO-Cl 1.04, prepared with 50 μL/L Sustain Summer Shield, approx. 10 mg/L DMO), average of duplicates
[10] = HOCl, initial total chlorine 1.1 mg/L

| SMILES | control of biofilm in words ([1]; between 50 and 60 μL/L of DMO with a source of free available chlorine, contact times between 30 and 60 minutes) | End FC (free chlorine after one hour) [2, 3] | End TC (total chlorine after one hour) [2, 3] | End FC (free chlorine after one hour) [2, 4] | End TC (total chlorine after one hour) [2, 4] | End FC (free chlorine at end) [2, 5] | End TC (total chlorine at end) [2, 5] | End FC (free chlorine at end) [2, 6] | End TC (total chlorine at end) [2, 6] | End FC (free chlorine at end) [2, 7] | End TC (total chlorine at end) [2, 7] | Final Cell Count [1, 8] | Final Cell Count [1, 9] | Final Cell Count ([1]; Table II, 30 min contact, DMO-Cl prepared with 15 μL/L Sustain Summer Shield (approx. 3 mg/L DMO), initial total chlorine 1.2 mg/L) | Final Cell Count ([1]; Table II, 30 min contact, DMO-Cl prepared with 30 μL/L Sustain Summer Shield (approx. 6 mg/L DMO), initial total chlorine 1.18 mg/L) | Final Cell Count ([1]; Table II, 30 min contact, DMO-Cl prepared with 60 μL/L Sustain Summer Shield (approx. 12 mg/L DMO), initial total chlorine 1.19 mg/L) | reduction in viable cell numbers ([1]; existing S. Natans biofilm, 60 minutes contact time (Table I)) | End FC (free chlorine at end) [2, 10] | End TC (total chlorine at end) [2, 10] | Final Cell Count ([1]; Table II, 30 min contact, HOCl, initial total chlorine 1.1 mg/L) |
| --- | --- | --- | --- | --- | --- | --- | --- | --- | --- | --- | --- | --- | --- | --- | --- | --- | --- | --- | --- | --- |
| CC1(C)COC(=O)N1 [DMO, 4,4-dimethyl-2-oxazolidinone] | complete control |  |  |  |  |  |  |  |  |  |  |  |  |  |  |  |  |  |  |  |
| CC1(C)COC(=O)N1Cl [DMO-Cl, 3-chloro-4,4-dimethyl-2-oxazolidinone] |  | 0.2 mg/L | 4.7 mg/L | 0.1 mg/L | 0.4 mg/L | 0.05 mg/L | 0.52 mg/L | 0.07 mg/L | 0.47 mg/L | 0 mg/L | 0.41 mg/L | 0 cfu/mL | 25^a cfu/mL | 2.1 × 10^4 cfu/mL | 1.6 × 10^4 cfu/mL | 0 cfu/mL | ≥ 3 log |  |  |  |
| OCl [HOCl, Hypochlorous Acid, reference compound] |  | 1.6 mg/L | 3.1 mg/L | 0 mg/L | 0.3 mg/L |  |  |  |  |  |  | 0 cfu/mL | 1.9 × 10^4 cfu/mL |  |  |  |  | 0.1 mg/L | 0.31 mg/L | 2.3 × 10^4 cfu/mL |
